Source: publication PMC3472068, “Roles of the different components of magnesium chelatase in abscisic acid signal transduction” (Plant Molecular Biology, 2012)

Target: T1, CHLH (CHLH/ABAR) (Arabidopsis thaliana, UniProt Q9FNB0)
T1 construct: ORF in pFastBac HFT-B, Flag-tagged fusion, expressed in Sf9 insect cells; about 150 kDa; full length 1381 residues; amine-coupled on CM5 chip
T1 sequence (Q9FNB0 1-1381): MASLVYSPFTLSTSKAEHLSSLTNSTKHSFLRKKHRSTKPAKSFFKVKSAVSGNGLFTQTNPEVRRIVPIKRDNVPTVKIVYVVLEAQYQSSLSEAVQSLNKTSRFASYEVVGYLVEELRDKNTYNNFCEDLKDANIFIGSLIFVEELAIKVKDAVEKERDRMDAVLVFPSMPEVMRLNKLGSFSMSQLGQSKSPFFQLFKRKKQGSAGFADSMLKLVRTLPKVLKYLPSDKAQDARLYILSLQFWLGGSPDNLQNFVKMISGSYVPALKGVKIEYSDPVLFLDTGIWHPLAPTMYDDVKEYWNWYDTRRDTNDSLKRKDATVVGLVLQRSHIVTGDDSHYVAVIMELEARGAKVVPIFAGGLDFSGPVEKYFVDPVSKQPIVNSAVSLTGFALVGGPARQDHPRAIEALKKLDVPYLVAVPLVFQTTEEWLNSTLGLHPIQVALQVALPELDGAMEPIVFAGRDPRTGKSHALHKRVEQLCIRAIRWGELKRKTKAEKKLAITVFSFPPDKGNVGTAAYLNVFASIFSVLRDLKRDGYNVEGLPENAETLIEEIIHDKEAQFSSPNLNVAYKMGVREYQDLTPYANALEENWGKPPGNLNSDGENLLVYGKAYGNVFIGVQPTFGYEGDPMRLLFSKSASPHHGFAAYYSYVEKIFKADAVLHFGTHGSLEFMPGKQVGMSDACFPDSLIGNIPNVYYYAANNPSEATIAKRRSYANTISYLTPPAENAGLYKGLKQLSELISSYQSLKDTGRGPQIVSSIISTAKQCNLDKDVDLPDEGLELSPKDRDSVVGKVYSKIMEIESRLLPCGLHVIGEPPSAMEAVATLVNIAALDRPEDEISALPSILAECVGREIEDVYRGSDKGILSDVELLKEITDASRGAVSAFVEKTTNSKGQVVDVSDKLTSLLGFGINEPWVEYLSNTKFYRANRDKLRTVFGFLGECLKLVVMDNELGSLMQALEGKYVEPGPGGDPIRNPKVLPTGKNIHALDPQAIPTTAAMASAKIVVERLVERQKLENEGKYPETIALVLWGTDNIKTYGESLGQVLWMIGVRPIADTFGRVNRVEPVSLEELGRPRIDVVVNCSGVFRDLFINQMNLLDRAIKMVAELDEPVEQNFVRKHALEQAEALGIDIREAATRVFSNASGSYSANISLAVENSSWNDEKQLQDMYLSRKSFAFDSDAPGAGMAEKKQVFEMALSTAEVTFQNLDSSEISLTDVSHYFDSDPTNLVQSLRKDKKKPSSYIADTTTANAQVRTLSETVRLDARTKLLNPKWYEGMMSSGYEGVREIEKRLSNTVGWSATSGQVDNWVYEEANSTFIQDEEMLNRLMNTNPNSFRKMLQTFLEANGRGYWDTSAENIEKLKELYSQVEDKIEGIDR
Test: SPR (Biacore T200, CM5 chip, protein immobilized by amine coupling), steady-state fit
Assay type: binding
Details: HBS-EP running buffer with EDTA, pH 7.4, 25 °C, 6-100 μM analyte; unreliable (authors attribute the low affinity to technical limits of SPR)

## CC1=CC(=O)CC(C)(C)C1(O)/C=C/C(C)=C\C(=O)O (stereo in doubt) [(+)-ABA]
  Kd: 20 µM
